# Legend:
# PC12 cells [1] = assay: LDH cytotoxicity in PC12 cells; format: cell-based
# Description: They were cultured on Primaria 6-well plates (BD Falcon, Ontario, Canada) for RT-PCR experiments and immunoblotting; on Primaria 96-wells plates for LDH cytoxicity experiments and finally on poly-L-lysine-coated circular glass coverslips for immunocytofluorescence assays. Cells were fed fresh medium every 3 days and maintained at 37° C. in a humidified 5% CO2 atmosphere. […] Control conditions were without toxin.
# Briefly, media were collected and centrifuged at 800×g at 4° C. for 2 min. The cell-free supernatant (100 μl) was then used to determine LDH activity by measuring the absorbance at a wavelength of 490 nm (A490) on a microplate reader (Multiscan Ascent Microplate reader, Thermolab System, Franklin Mass.) according to the working procedures of Roche's protocol. Total cellular LDH was determined by lysing cells with 1% Triton X-100.
# PC12 cells [2] = assay: TUNEL/DAPI apoptosis in PC12 cells; format: cell-based, rat; details: 6-OHDA, at 12 and 24 h
# Description: (§1) PC12 cells were obtained from ATCC CRL 1721 (VA, USA) and were grown in phenol red-free RPMI 1640 medium supplemented with 5% fetal calf serum (FCS), 10% horse serum and gentamicin (50 μg/ml). They were cultured on Primaria 6-well plates (BD Falcon, Ontario, Canada) for RT-PCR experiments and immunoblotting; on Primaria 96-wells plates for LDH cytoxicity experiments and finally on poly-L-lysine-coated circular glass coverslips for immunocytofluorescence assays. Cells were fed fresh medium every 3 days and maintained at 37° C. in a humidified 5% CO2 atmosphere. […] Control conditions were without toxin. […] For the present study, kinetic time periods were: 0 h, 3 h, 6 h, 9 h, 12 h and 24 h. After each experiment, culture medium was harvested for cytotoxicity detection and cells were collected for RT-PCR and ICF/Fractioning (Gelinas & Martinoli 2002; Gagne et al. 2003; Gelinas et al. 2004; Chiasson et al. 2006).
# PC12 cells were grown and treated on circular glass coverslips, then fixed in 4% paraformaldehyde for 1 hour at 4° C. […] Images were acquired with an Olympus IX-70 inverted microscope with a high-pressure mercury burner and necessary filter cubes (Olympus U-MNUV, U-MNIBA and U-MWIG), and were analyzed with Bio-Rad's QuantityOne software. […]
# Nur77 mRNA = assay: 6-hydroxydopamine lesions in rats, Nur77 mRNA in situ hybridization in substantia nigra; format: in vivo; details: intracerebral 6-OHDA 12 μg/3 μl
# Description: (§2) Fifteen male Sprague—Dawley albino rats (Charles River, Montreal, Canada) weighing 250-275 g at the beginning of the experiment were used in this study. They were housed two per cage in a temperature-controlled environment maintained under a 12-h light/dark cycle with ad libitum access to food and water. Handling of the rats was performed in accordance with the Canadian Guide for the Care and Use of Laboratory animals and all procedures were approved by the Institutional Animal Care Committee of Laval University. All efforts were made to minimize the number of animals used and their suffering. Rats were anaesthetized in an induction chamber with 4% isoflurane in 95% O2/5% CO2 before being transferred to a stereotaxic frame and maintained at 1.5-3% isoflurane. A sagittal cut exposed bregma and a hole was drilled.
# Cryostat-cut brain sections (12 μm) were mounted on Superfrost slides (Fisher Scientific, Toronto, ON, Canada) and stored at −80° C. Specific [^35S]UTP-labeled complementary.
# RNA (cRNA) probes were used and preparation of the Nur77 probe was performed as described previously (Beaudry et al., 2000). The antisense cRNA probe for Nur77 stems from a 2.4-kb EcoRI fragment of a full-length rat Nur77 cDNA subcloned into pBluescript SK-1 and linearized with BamHI. […]
# substantia nigra neurons = assay: 6-hydroxydopamine lesions in rats, Fluoro-Jade B staining of degenerating neurons; format: in vivo; details: intracerebral 6-OHDA
# Description: as §2
# The brain sections were mounted on gelatin-coated slides (Brain Research Laboratories, Newton, Mass.) and air-dried overnight. They were dehydrated in ascending grades of ethanol, hydrated in descending grades of ethanol and finally rinsed in milliQ water. Afterwards, the sections were dipped in a 0.06% potassium permanganate solution bath for 10 min and washed in milliQ water. […] Degenerating neurons and fibers appeared green and nuclei emerged blue in fluorescence.
# Nur77 = Nur77 subcellular distribution (nuclei-cytoplasmic fractioning, Western blot) in PC12 cells; format: cell-based, rat
# Description: as §1
# PC12 cells were grown and treated in 6-wells plates. We used a nuclear extraction kit (Active Motif, Carlsbad, Calif.) to separate cytoplasmic protein content from nuclear protein content. Briefly, cells were washed in wells with a mixture of PBS and phosphatase inhibitors, and then harvested in centrifuge tubes. Hypotonic buffer swelled cytoplasmic membrane, which an afterward mild detergent ruptured.
# Centrifugation at 14,000×g pelleted the intact nuclei, and soluble material was preserved as the cytoplasmic fraction. Nuclei were the lysed with the provided lysis buffer. Protein dosage was performed with a bicinchoninic acid (BCA)-based SDS-compatible Protein Assay Kit (Pierce, Rockfort, Ill.) on each fraction of each sample.
# Equal amounts of nuclei or cytoplasmic protein fractions were loaded onto a 10% polyacrylamide-SDS gel. After electrophoretic separation (180 volts, 45 min.) the polyacrylamide gels were transferred onto […] (PVDF) membranes (0.22 μm pore size, Bio-Rad) at 50 V for 2 h. The membranes were blocked with 5% non-fat powder milk for 1 h. […] Quantitative analysis was performed with the Fluor Chem SP software.
# nigral TH neurons = assay: MPTP lesions in mice, stereological counts of TH-immunoreactive neurons; format: in vivo; details: Nur77 (+/+) mice, 7 i.p. injections MPTP-HCl 20 mg/kg, 14 days after last injection
# Source text: Wild-type (Nur77(+/+)) male (C57BL/6, weighing 20-25 g) mice were purchased from Charles River, Canada. Nur77 knockout (Nur77(−/−)) mice were developed and graciously provided by Dr Jeff Milbrandt at the Washington University, St. Louis, Mo., USA (Lee et al., 1995). These mice are healthy and reproduce normally (Crawford et al., 1995; Lee et al., 1995). They were produced in a mixed background and have been backcrossed into the C57BL/6 strain for at least ten generations to reduce genetic background heterogeneity (Jeff Milbrandt, personal communication). We maintain a Nur77(−/−) mouse colony at the animal care facility of our research center. Young adult Nur77(−/−) male mice weighing 20-25 g were used for present experiments. All mice were housed three or four per cage in a temperature-controlled environment and maintained under a 12-h light-dark cycle with ad libitum access to food and water.
# In total, 17 mice (8 Nur77 (+/+) and 9 Nur77 (−/−)) received seven intraperitoneal (i.p.) injections of MPTP-HCl (20 mg/kg free base; Sigma, St. Louis, Mo.) dissolved in NaCl 0.9%. MPTP was administered twice on the first 2 days of the experimental protocol at an interval of 12 h and once a day on 3 subsequent days (Tremblay et al. 2006; Gibrat et al., 2010). […]
# The loss of DA neurons was determined by counting TH-immunoreactive cells under bright-field illumination. […]
structure (smiles),measurement,setting,value
"NCCc1cc(O)c(O)cc1O [6-OHDA, 6-hydroxydopamine]",start of significant rise of cellular death (LDH activity),"PC12 cells [1]; PC12 cells, 10 μM 6-OHDA",12 h
same,cell death,"PC12 cells [1]; PC12 cells, 6-OHDA 30 μM, after 24 h",≤ 70%
same,cells showing signs of apoptosis (co-localization of DAPI and TUNEL),PC12 cells [2],more than 90%
same,earliest time of Nur77 mRNA induction in midbrain dopaminergic neurons,Nur77 mRNA,3 h
same,time at which Fluoro-Jade staining is also observed,substantia nigra neurons,3 h
same,time of maximal Fluoro-Jade staining,substantia nigra neurons,48 h
same,start of Nur77 upregulation and translocation from the nucleus to the cytosol,Nur77; 6-OHDA 30 μM,9 h
"CC/C=C\C/C=C\C/C=C\C/C=C\C/C=C\C/C=C\CCC(=O)O [DHA, docosahexaenoic acid]",cytotoxicity induced by 6-OHDA,"PC12 cells [1]; PC12 cells, 6-OHDA 30 μM, co-incubation with DHA 10^−6 M",significantly reduced
same,cytotoxicity induced by MPP+,"PC12 cells [1]; PC12 cells, MPP+ 5 mM, co-incubation with DHA 10^−6 M",significantly reduced
"CCC(=C/[C@H](C)C/C=C/C(C)=C/[C@@H](C)C(=O)[C@@H](C)[C@H](O)[C@@H](C)C/C(C)=C/C(=O)O)/C=C/[C@@H]1OC(=O)C=C[C@@H]1C [LMB, leptomycin B]",PC12 cell survival,PC12 cells [1]; LMB alone,no effect
same,6-OHDA induced cell death,"PC12 cells [1]; PC12 cells, co-incubation of LMB with 6-OHDA, 24 h",significant reduction
same,6-OHDA-induced translocation of Nur77 from the nucleus to the cytosol,"Nur77; 6-OHDA 30 μM, co-incubation with LMB 1 nM",blocked
"C[n+]1ccc(-c2ccccc2)cc1 [MPP+, 1-methyl-4-phenylpyridinium ion]",beginning of Nur77 protein translocation from the nucleus to the cytosol,Nur77; MPP+ 5 mM,6 h
"CN1CC=C(c2ccccc2)CC1 [MPTP, 1-methyl-4-phenyl-1,2,3,6-tetrahydropyridine]",number of nigral TH neurons,nigral TH neurons,significantly reduced

# Reference: patent US20100298434A1, “NEUROPROTECTION AND PREVENTION OF DOPAMINERGIC CELL DEATH BY TARGETING NUR77 TRANSLOCATION” (priority 2009, published 2010)
